In patent publication US4533665A, “[[Bis(aryl)methylene]-1-piperidinyl]alkyl-pyrimidinones” (Janssen Pharmaceutica, priority 1984, dated 1985):
Where a name gives a salt, the structure may show the parent alone.

Target: T1, S2-receptor (Rattus norvegicus, UniProt P14842)
T1 construct: Caudal arteries from fasted male rats; from tissue; host or cells: rat caudal artery, helical strips
Test: antagonistic activity on the effect of serotonin on the caudal artery of the rat (caudal artery test)
Details: rat caudal artery strips; serotonin 40 ng/ml; 5 minutes after adding the drug; read-out: ED50 (minimal concentration which reduces the amplitude of the serotonin-induced contraction to at least 50% of its normal value) (converted)
Protocol: ANTAGONISTIC ACTIVITY ON THE EFFECT OF SEROTONIN ON THE CAUDAL ARTERY OF THE RAT
Caudal arteries from fasted male rats (210-235 g) were used in the test. […] Submaximal contractions of the arterial strips were produced by adding single doses of serotonin (40 ng/ml) to the organ bath for 2 minutes with each time an interval of 10 minutes. The amplitude of the contraction was measured before and 5 minutes after adding the drug. After washing out, the agonist was added again three times in order to see whether the contraction was restored and normalized. […] In this connection the ED50 -values are the minimal concentrations of the concerned drugs which reduce the amplitude of the contraction to at least 50% of its normal value.

T1 sequence (P14842 whole entry): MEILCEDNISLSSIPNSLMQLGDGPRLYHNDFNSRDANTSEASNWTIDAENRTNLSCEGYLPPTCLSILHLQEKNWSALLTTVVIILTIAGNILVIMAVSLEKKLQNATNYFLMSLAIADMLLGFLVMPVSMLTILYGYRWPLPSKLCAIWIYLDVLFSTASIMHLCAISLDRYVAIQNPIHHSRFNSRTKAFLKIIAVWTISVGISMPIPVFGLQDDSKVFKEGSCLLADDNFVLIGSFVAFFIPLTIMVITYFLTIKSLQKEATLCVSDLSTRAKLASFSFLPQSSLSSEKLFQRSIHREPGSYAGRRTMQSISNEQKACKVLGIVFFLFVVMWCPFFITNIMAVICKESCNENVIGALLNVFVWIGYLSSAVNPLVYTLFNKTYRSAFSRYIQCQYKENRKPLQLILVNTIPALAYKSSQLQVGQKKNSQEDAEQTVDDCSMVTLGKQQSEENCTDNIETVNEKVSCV

For `Cc1nc2sccn2c(=O)c1CCN1CCC(=C(c2ccc(F)cc2)c2ccc(Br)cc2)CC1` [Compound 34], the IC50 was 1.04 pM.

`Cc1cccc(C(=C2CCN(CCc3c(C)nc4n(c3=O)CCCS4)CC2)c2ccc(F)cc2)c1` [Compound 123] was tested, and the IC50 was 0.654 pM.

With `Cc1nc2sccn2c(=O)c1CCN1CCC(=C(c2ccc(O)cc2)c2ccc(F)cc2)CC1` [Compound 24] the IC50 was 0.378 pM.

`Cc1nc2scc(C)n2c(=O)c1CCN1CCC(=C(c2ccc(F)cc2)c2cccc(Cl)c2)CC1` [Compound 7] was tested, and the IC50 was 1.24 pM.

With `Cc1nc2sccn2c(=O)c1CCN1CCC(=C(c2ccc(F)cc2)c2cccnc2)CC1` [Compound 53] the IC50 was 2.82 pM.

Molecule `Cc1nc2n(c(=O)c1CCN1CCC(=C(c3ccc(F)cc3)c3cccc(F)c3)CC1)CCCC2` [Compound 30] has an IC50 of 1.18 pM.

In the case of `Cc1nc2n(c(=O)c1CCN1CCC(=C(c3ccc(F)cc3)c3cccc(C(F)(F)F)c3)CC1)CCCS2` [Compound 120], the IC50 is reported as 1.03 pM.

`Cc1nc2scc(C)n2c(=O)c1CCN1CCC(=C(c2ccccc2)c2cccc(C(F)(F)F)c2)CC1` [Compound 85] was tested, and the IC50 was < 4.77 pM.

Work on `Cc1nc2n(c(=O)c1CCN1CCC(=C(c3ccc(O)cc3)c3ccc(F)cc3)CC1)CCCS2` [Compound 37] yielded an IC50 of 2.64 pM.

In the case of `Cc1nc2ccccn2c(=O)c1CCN1CCC(=C(c2ccc(F)cc2)c2cccc(F)c2)CC1` [Compound 36], the IC50 is reported as 0.679 pM.

`Cc1nc2sccn2c(=O)c1CCN1CCC(=C(c2ccc(F)cc2)c2cccc(Cl)c2)CC1` [Compound 6] gave an IC50 of 1.28 pM.

Work on `Cc1cc(C)n2c(=O)c(CCN3CCC(=C(c4ccc(F)cc4)c4ccc(F)cc4)CC3)c(C)nc2c1` [Compound 55] yielded an IC50 of 2.6 pM.

Work on `Cc1ccc(C(=C2CCN(CCc3c(C)nc4sccn4c3=O)CC2)c2ccccc2)cc1` [Compound 66] yielded an IC50 of 0.158 pM.

With `Cc1nc2n(c(=O)c1CCN1CCC(=C(c3ccccc3)c3ccccc3)CC1)CCCS2` [Compound 104, 7-[2-[4-(diphenylmethylene)-1-piperidinyl]ethyl]-3,4-dihydro-8-methyl-2H,6H-pyrimido[2,1-b][1,3]-thiazin-6-one] the IC50 was 0.699 pM.

Work on `COc1ccc(C(=C2CCN(CCc3c(C)nc4n(c3=O)CCCS4)CC2)c2ccc(F)cc2)cc1` [Compound 145, 7-[2-[4-[(4-fluorophenyl)(4-methoxyphenyl)methylene]-1-piperidinyl]ethyl]-3,4-dihydro-8-methyl-2H,6H-pyrimido[2,1-b][1,3]thiazin-6-one dihydrochloride] yielded an IC50 of 2.25 pM.

In the case of `Cc1nc2sccn2c(=O)c1CCN1CCC(=C(c2ccc(F)cc2)c2cccc(C(F)(F)F)c2)CC1` [Compound 21], the IC50 is reported as 1.19 pM.

With `Cc1ccc(C(=C2CCN(CCc3c(C)nc4ccccn4c3=O)CC2)c2ccc(C)cc2)cc1` [Compound 43] the IC50 was 1.53 pM.

`Cc1nc2ccc(Cl)cn2c(=O)c1CCN1CCC(=C(c2ccc(F)cc2)c2ccc(F)cc2)CC1` [Compound 51] was tested, and the IC50 was 1.4 pM.

`Cc1nc2n(c(=O)c1CCN1CCC(=C(c3ccc(F)cc3)c3cccc(C(F)(F)F)c3)CC1)CCS2` [Compound 118] was tested, and the IC50 was 2.36 pM.

`Cc1nc2ccc(N)cn2c(=O)c1CCN1CCC(=C(c2ccc(F)cc2)c2ccc(F)cc2)CC1` [Compound 141, 7-amino-3-[2-[4-[bis(4-fluorophenyl)methylene]-1-piperidinyl]ethyl]-2-methyl-4H-pyrido[1,2-a]-pyrimidin-4-one] showed an IC50 of 1.46 pM.

Molecule `Cc1nc2n(c(=O)c1CCN1CCC(=C(c3ccc(Cl)cc3)c3ccc(Cl)cc3)CC1)CCCC2` [Compound 52] has an IC50 of 1.4 pM.

Work on `Cc1nc2n(c(=O)c1CCN1CCC(=C(c3ccc(F)cc3)c3ccc(Cl)cc3)CC1)CCS2` [Compound 22] yielded an IC50 of 2.62 pM.

Work on `COc1ccc(C(=C2CCN(CCc3c(C)nc4n(c3=O)CCCC4)CC2)c2ccc(F)cc2)cc1` [Compound 146, 3-[2-[4-[(4-fluorophenyl)(4-methoxyphenyl)methylene]-1-piperidinyl]ethyl]-6,7,8,9-tetrahydro-2-methyl-4H-pyrido[1,2-a]pyrimidin-4-one dihydrochloride] yielded an IC50 of 2.32 pM.

Work on `COC1CN(CCc2c(C)nc3ccccn3c2=O)CCC1=C(c1ccc(F)cc1)c1ccc(F)cc1` (stereo not drawn) [Compound 62] yielded an IC50 of 5.58 pM.

Molecule `Cc1ccc(C(=C2CCN(CCc3c(C)nc4sccn4c3=O)CC2)c2ccc(F)cc2)cc1` [Compound 49] has an IC50 of 0.676 pM.

For `Cc1nc2sccn2c(=O)c1CCN1CCC(=C(c2ccccc2)c2ccc(F)cc2)CC1` [Compound 139, 6-[2-[4-[(4-fluorophenyl)phenylmethylene]-1-piperidinyl]ethyl]-7-methyl-5H-thiazolo[3,2-a]pyrimidin-5-one monohydrochloride], the IC50 was 0.323 pM.

`Cc1cccc(C(=C2CCN(CCc3c(C)nc4ccccn4c3=O)CC2)c2ccc(F)cc2)c1` [Compound 15] showed an IC50 of 1.35 pM.

`Cc1ccc(C(=C2CCN(CCc3c(C)nc4n(c3=O)CCCS4)CC2)c2ccc(F)cc2)cc1` [Compound 40] was tested, and the IC50 was 1.14 pM.

For `COC1CN(CCc2c(C)nc3sccn3c2=O)CCC1=C(c1ccc(F)cc1)c1ccc(F)cc1` (stereo not drawn) [Compound 63], the IC50 was 2.56 pM.

`Cc1ccc(C(=C2CCN(CCc3c(C)nc4n(c3=O)CCCC4)CC2)c2ccc(F)cc2)cc1` [Compound 46] gave an IC50 of 2.76 pM.

With `Cc1nc2sccn2c(=O)c1CCN1CCC(=C(c2ccc(F)cc2)c2cccc(F)c2)CC1` [Compound 25] the IC50 was 0.293 pM.

In the case of `Cc1nc2scc(C)n2c(=O)c1CCN1CCC(=C(c2ccccc2)c2ccc(O)cc2)CC1` [Compound 72], the IC50 is reported as 1.51 pM.

`Cc1nc2n(c(=O)c1CCN1CCC(=C(c3ccccc3)c3ccc(F)cc3)CC1)CCCC2` [Compound 137, 3-[2-[4-[(4-fluorophenyl)phenylmethylene]-1-piperidinyl]ethyl]-6,7,8,9-tetrahydro-2-methyl-4H-pyrido[1,2-a]pyrimidin-4-one dihydrochloride] showed an IC50 of 2.45 pM.

`Cc1ccc2nc(C)c(CCN3CCC(=C(c4ccc(F)cc4)c4ccc(F)cc4)CC3)c(=O)n2c1` [Compound 50] gave an IC50 of 1.46 pM.

`Cc1nc2n(c(=O)c1CCN1CCC(=C(c3ccc(F)cc3)c3ccc(Br)cc3)CC1)CCS2` [Compound 44] gave an IC50 of 1.04 pM.

`Cc1ccc(C(=C2CCN(CCc3c(C)nc4n(c3=O)CCS4)CC2)c2ccccc2)cc1` [Compound 130] was tested, and the IC50 was 0.175 pM.

`Cc1cccc(C(=C2CCN(CCc3c(C)nc4sccn4c3=O)CC2)c2ccccc2)c1` [Compound 69] showed an IC50 of 0.702 pM.

`Cc1ccc(C(=C2CCN(CCc3c(C)nc4n(c3=O)CCS4)CC2)c2ccc(F)cc2)cc1` [Compound 47] gave an IC50 of 0.673 pM.

`Cc1nc2n(c(=O)c1CCN1CCC(=C(c3ccc(F)cc3)c3ccc(F)cc3)CC1)CCCS2` [Compound 114] was tested, and the IC50 was 1.13 pM.

`Cc1nc2scc(C)n2c(=O)c1CCN1CCC(=C(c2ccccc2)c2ccccc2)CC1` [Compound 105, 6-[2-[4-(diphenylmethylene)-1-piperidinyl]ethyl]-3,7-dimethyl-5H-thiazolo[3,2-a]pyrimidin-5-one] showed an IC50 of 0.702 pM.

`Cc1nc2scc(C)n2c(=O)c1CCN1CCC(=C(c2ccccc2)c2ccc(F)cc2)CC1` [Compound 117] was tested, and the IC50 was < 1.33 pM.

`Cc1ccn2c(=O)c(CCN3CCC(=C(c4ccc(F)cc4)c4ccc(F)cc4)CC3)c(C)nc2c1` [Compound 59] gave an IC50 of 0.659 pM.

In the case of `Cc1nc2n(c(=O)c1CCN1CCC(=C(c3ccc(F)cc3)c3ccc(Br)cc3)CC1)CCCS2` [Compound 33], the IC50 is reported as 5.05 pM.

Work on `Cc1nc2n(c(=O)c1CCN1CCC(=C(c3ccc(F)cc3)c3cccc(C(F)(F)F)c3)CC1)CCCC2` [Compound 140, 3-[2-[4-[(4-fluorophenyl)[3-(trifluoromethyl)phenyl]methylene]-1-piperidinyl]ethyl]-6,7,8,9-tetrahydro-2-methyl-4H-pyrido[1,2-a]pyrimidin-4-one dihydrochloride] yielded an IC50 of 2.09 pM.

With `Cc1cccc(C(=C2CCN(CCc3c(C)nc4n(c3=O)CCCS4)CC2)c2ccccc2)c1` [Compound 70] the IC50 was 1.19 pM.
